Data on 15 molecules can be found in patent US8273754B2, “Substituted 1H-pyrazolo[3,4-D]pyrimidine-6-amine compounds” (ArQule, Inc., priority 2008, dated 2012).

Read-outs that look alike come from different tables or passages of the source. A value given as a limit tells only on which side of the number the result lay.

For this experiment, the system named is cancer cells. In words: MTS cell growth inhibition assay (72 hours). It counts as cell-based. In a few lines:
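Growth inhibition read as formazan absorbance at 492 nm after 4 h MTS/PMS, following 72 h compound exposure at 37 °C in 1% FBS DMEM (cells pre-seeded 18 h). IC50 = 50% absorbance reduction; inhibition graded in bands.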

Where [1] appears, read: Homo sapiens, DLD-1, 72 h, DLD-1 cells, read-out: DLD-1 MTS 72 hr at 10 μM.
[2] abbreviates: Homo sapiens, KATO III, 72 h, KATO III cells, read-out: KATO III MTS 72 hr at 10 μM.
Setting [3] is: Homo sapiens, MDA-MB-231, 72 h, MDA-MB-231 cells, read-out: MDA-MB-231 MTS 72 hr at 10 μM.
The mark [4] stands for this setting: Homo sapiens, NCI-H1299, 72 h, NCI-H1299 cells, read-out: NCI-H1299 MTS 72 hr at 10 μM.
Setting [5] is: PaCa-2, 72 h, PACA-2 cells, read-out: PACA-2 MTS 72 hr at 10 μM.

Consider `Cc1ccccc1Oc1cccc(S(=O)(=O)N2CC(Nc3nc(N)nc4[nH]ncc34)Cc3ccccc32)c1` (centres unmarked) [Compound 71, N4-(1-(3-(o-tolyloxy)phenylsulfonyl)-1,2,3,4-tetrahydroquinolin-3-yl)-1H-pyrazolo[3,4-d]pyrimidine-4,6-diamine], for which the inhibition at 10 µM is more than 79% under setting [1]; more than 79% under setting [2]; more than 79% under setting [3]; 50 to 79% under setting [4]; more than 79% under setting [5].

Take `COc1cc(F)ccc1CN1CC(Nc2nc(N)nc3[nH]ncc23)Cc2ccccc21` (centres unmarked) [Compound 141, N4-[1-(4-fluoro-2-methoxybenzyl)-1,2,3,4-tetrahydroquinolin-3-yl]-1H-pyrazolo[3,4-d]pyrimidine-4,6-diamine]: the inhibition at 10 µM by setting is: under setting [1], more than 79%; under setting [2], more than 79%; under setting [3], more than 79%; under setting [4], more than 79%; under setting [5], more than 79%.

In the case of `COc1ccc(-c2ccc(S(=O)(=O)N3CC(Nc4nc(N)nc5[nH]ncc45)Cc4ccccc43)cc2)cc1` (centres unmarked) [Compound 60, N4-(1-(4′-methoxybiphenyl-4-ylsulfonyl)-1,2,3,4-tetrahydroquinolin-3-yl)-1H-pyrazolo[3,4-d]pyrimidine-4,6-diamine], the inhibition at 10 µM under setting [1] is less than 50%; the inhibition at 10 µM under setting [2] is less than 50%; the inhibition at 10 µM under setting [3] is less than 50%; the inhibition at 10 µM under setting [4] was less than 50%; the inhibition at 10 µM under setting [5] was less than 50%.

In the case of `CCOC(=O)c1ccc(NC(=O)N2CC(Nc3nc(N)nc4[nH]ncc34)Cc3ccccc32)cc1` (centres unmarked) [Compound 114, ethyl 4-(3-(6-amino-1H-pyrazolo[3,4-d]pyrimidin-4-ylamino)-1,2,3,4-tetrahydroquinoline-1-carboxamido)benzoate], the inhibition at 10 µM is, setting by setting: under setting [1], more than 79%; under setting [2], less than 50%; under setting [3], less than 50%; under setting [4], less than 50%; under setting [5], less than 50%.

Turning to `COc1ccc(Br)cc1CN1CC(Nc2nc(N)nc3[nH]ncc23)Cc2ccccc21` (centres unmarked) [Compound 144, N4-[1-(5-bromo-2-methoxybenzyl)-1,2,3,4-tetrahydroquinolin-3-yl]-1H-pyrazolo[3,4-d]pyrimidine-4,6-diamine], the inhibition at 10 µM reads like this: under setting [1], more than 79%; under setting [2], more than 79%; under setting [3], more than 79%; under setting [4], more than 79%; under setting [5], more than 79%.

For the molecule `Nc1nc(NC2CCN(S(=O)(=O)c3ccc(F)c(F)c3)c3ccccc3C2)c2cn[nH]c2n1` (centres unmarked) [Compound 182, N4-{1-[(3,4-difluorophenyl)sulfonyl]-2,3,4,5-tetrahydro-1H-1-benzazepin-4-yl}-1H-pyrazolo[3,4-d]pyrimidine-4,6-diamine], the inhibition at 10 µM reads like this: under setting [1], less than 50%; under setting [2], less than 50%; under setting [3], less than 50%; under setting [4], less than 50%; under setting [5], less than 50%.

As for `Cc1ccc(C)c(CN2CC(Nc3nc(N)nc4[nH]ncc34)Cc3ccccc32)c1` (centres unmarked) [Compound 148, N4-[1-(2,5-dimethylbenzyl)-1,2,3,4-tetrahydroquinolin-3-yl]-1H-pyrazolo[3,4-d]pyrimidine-4,6-diamine], the inhibition at 10 µM is more than 79% under setting [1]; more than 79% under setting [2]; 50 to 79% under setting [3]; 50 to 79% under setting [4]; more than 79% under setting [5].

Consider `Nc1nc(NC2Cc3ccccc3N(C(=O)C3CC3)C2)c2cn[nH]c2n1` (centres unmarked) [Compound 80, (3-(6-amino-1H-pyrazolo[3,4-d]pyrimidin-4-ylamino)-3,4-dihydroquinolin-1(2H)-yl)(cyclopropyl)methanone], for which the inhibition at 10 µM under setting [1] was less than 50%; the inhibition at 10 µM under setting [2] was less than 50%; the inhibition at 10 µM under setting [3] is less than 50%; the inhibition at 10 µM under setting [4] was less than 50%; the inhibition at 10 µM under setting [5] was less than 50%.

As to `Nc1nc(NC2Cc3ccccc3N(S(=O)(=O)c3cccc(NC(=O)Nc4ccccc4F)c3)C2)c2cn[nH]c2n1` (centres unmarked) [Compound 215, 1-[3-({3-[(6-amino-1H-pyrazolo[3,4-d]pyrimidin-4-yl)amino]-3,4-dihydroquinolin-1(2H)-yl}sulfonyl)phenyl]-3-(2-fluorophenyl)urea], the inhibition at 10 µM under setting [4] was less than 50%.

For `Cc1cccc(NC(=O)Nc2cccc(S(=O)(=O)N3CC(Nc4nc(N)nc5[nH]ncc45)Cc4ccccc43)c2)c1` (centres unmarked) [Compound 205, 1-[3-({3-[(6-amino-1H-pyrazolo[3,4-d]pyrimidin-4-yl)amino]-3,4-dihydroquinolin-1(2H)-yl}sulfonyl)phenyl]-3-(3-methylphenyl)urea], the inhibition at 10 µM is 50 to 79% under setting [1]; more than 79% under setting [2]; 50 to 79% under setting [3]; less than 50% under setting [4]; more than 79% under setting [5].

Turning to `Nc1nc(NC2Cc3ccccc3N(C(=O)c3c(F)cccc3Cl)C2)c2cn[nH]c2n1` (centres unmarked) [Compound 99, (3-(6-amino-1H-pyrazolo[3,4-d]pyrimidin-4-ylamino)-3,4-dihydroquinolin-1(2H)-yl)(2-chloro-6-fluorophenyl)methanone], the inhibition at 10 µM is, setting by setting: under setting [1], less than 50%; under setting [2], less than 50%; under setting [3], less than 50%; under setting [4], less than 50%; under setting [5], less than 50%.

Turning to `Nc1nc(NC2Cc3ccccc3N(S(=O)(=O)c3ccc(Cl)cc3)C2)c2cn[nH]c2n1` (centres unmarked) [Compound 35, N4-(1-(4-chlorophenylsulfonyl)-1,2,3,4-tetrahydroquinolin-3-yl)-1H-pyrazolo[3,4-d]pyrimidine-4,6-diamine], the inhibition at 10 µM reads like this: under setting [1], less than 50%; under setting [2], less than 50%; under setting [3], less than 50%; under setting [4], less than 50%; under setting [5], less than 50%.

For the molecule `Nc1nc(NC2Cc3ccccc3N(S(=O)(=O)c3cccc(NC(=O)NCc4ccccc4)c3)C2)c2cn[nH]c2n1` (centres unmarked) [Compound 210, 1-[3-({3-[(6-amino-1H-pyrazolo[3,4-d]pyrimidin-4-yl)amino]-3,4-dihydroquinolin-1(2H)-yl}sulfonyl)phenyl]-3-benzylurea], the inhibition at 10 µM was less than 50% under setting [1]; less than 50% under setting [2]; less than 50% under setting [3]; less than 50% under setting [4]; less than 50% under setting [5].

Turning to `COc1ccc(CC(=O)N2CC(Nc3nc(N)nc4[nH]ncc34)Cc3ccccc32)cc1OC` (centres unmarked) [Compound 95, 1-(3-(6-amino-1H-pyrazolo[3,4-d]pyrimidin-4-ylamino)-3,4-dihydroquinolin-1(2H)-yl)-2-(3,4-dimethoxyphenyl)ethanone], the inhibition at 10 µM runs as follows: under setting [1], less than 50%; under setting [2], less than 50%; under setting [3], less than 50%; under setting [4], less than 50%; under setting [5], less than 50%.

In the case of `Nc1nc(NC2CCN(S(=O)(=O)c3ccccc3)c3ccccc3C2)c2cn[nH]c2n1` (centres unmarked) [Compound 166, N^4-(1-(phenylsulfonyl)-2,3,4,5-tetrahydro-1H-benzo[b]azepin-4-yl)-1H-pyrazolo[3,4-d]pyrimidine-4,6-diamine], the inhibition at 10 µM under setting [1] is less than 50%; the inhibition at 10 µM under setting [2] was less than 50%; the inhibition at 10 µM under setting [3] was less than 50%; the inhibition at 10 µM under setting [4] is less than 50%; the inhibition at 10 µM under setting [5] is less than 50%.
